Test results published in PubChem BioAssay AID743417 (Broad Institute, 2014).
Records with an inconclusive call do not appear. Active and inactive are the calls of the source.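 How the source made its calls: active means compounds lowering the luciferase signal with a fitted half-maximal dose at most twice their top valid dose (cut at about 30 µM in these data); inconclusive means flat fits with moderate signal loss, or poor fits; inactive means the rest.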

test system: Clone20 osteoblast Shn3 3'UTR firefly luciferase, 24 h; assay: Shn3 3'UTR reporter inhibitors, dose response, cell-based, Clone20 osteoblasts, luminescence, dry powder, set 2 (AID 743417)

Structure (SMILES) | AC50
CC(=O)OCCCNc1cc(Sc2ccc(C)cc2)c2nonc2c1[N+](=O)[O-] | 1.1 µM
COc1ccc(CNCCc2ccc(Cl)cc2)cc1OCc1ccccc1 | 5.59 µM
CCOC(=O)C1CCN(C(=O)c2ccc(OCC(=O)Nc3cccc(C(F)(F)F)c3)c(OC)c2)CC1 | 1.75 µM
NS(=O)(=O)c1ccc(CCNCc2cc(Br)ccc2OCc2ccccc2F)cc1 | 4.65 µM
CC(CC(=O)N1CCN(c2cccc(Cl)c2)CC1)S(=O)(=O)c1ccc2c(c1)NC(=O)CO2 (stereo not given) | 3.99 µM
CNC(=O)c1nnsc1S(=O)c1ccc(Cl)cc1 (stereo not given) | 2.02 µM
COC(=O)/C(=C1/Oc2cc(C)oc(=O)c2S1)C(F)(F)F | 4.64 µM
O=C(c1cnc(N2CCN(c3ccccn3)CC2)c2ccccc12)N1CCN(c2cccc(Cl)c2)CC1 | 1.99 µM
O=C(NNc1ccnc2cc(Cl)ccc12)C1CCCCC1 | < 0.26 µM
C=CCNc1nc(N2CCCCC2)c(C#N)c2c1CN(Cc1ccccc1)CC2 | 16.8 µM
O=C1C=C(N2CCOCC2)c2ccccc2C1=O | 7.16 µM
CN(CC(=O)Nc1ccccc1Cl)C(=O)c1cccc(S(=O)(=O)N2CCN(Cc3ccccc3)CC2)c1 | 3.47 µM
CCS(=O)(=O)c1ccc2oc(SCC(=O)N3CCCCC3)nc2c1 | > 70 µM (inactive)
CCCCC(=O)NC(c1ccccc1Cl)c1ccc2cccnc2c1O (stereo not given) | 1.12 µM
CCOC(=O)c1cnc(-n2nc(C)cc2C)nc1NNc1nc(-c2ccccc2)cc(-c2ccccc2)n1 | 3.84 µM
CCOc1ccc(CN(C)c2ccc(S(=O)(=O)N3CCN(C)CC3)cc2[N+](=O)[O-])cc1OC | 3.38 µM
CCOC(=O)c1c2c(n(-c3ccc(OC)cc3)c1C)C(=O)C(=O)c1ccccc1-2 | 3.15 µM
Cc1ccc(S(=O)(=O)c2ccc([N+](=O)[O-])cn2)cc1 | 3.85 µM
c1ccc(-c2cc(CSc3nc4ccccc4[nH]3)on2)cc1 | 3.76 µM
C=CCn1c(SCC(=O)c2[nH]c(C)c(C(=O)OC)c2C)nc2scc(-c3ccc(OC)c(OC)c3)c2c1=O | 2.01 µM
Cc1ccc(CNc2nc(NCC3CC3)nc3ccsc23)c(C)c1 | 3.95 µM
C#CCN(C[C@@H]1[C@@H](OC(=O)NCC2CCCCC2)[C@@H](OC(=O)NCC2CCCCC2)Cn2c(=O)ccc(=O)n21)S(=O)(=O)c1ccc(C)cc1 | 2.49 µM
O=C(c1ccc(Br)cc1)C(CN1CCOCC1)c1ccccc1 (stereo not given) | 9.4 µM
CS(=O)(=O)c1ncc(Cl)c(C(=O)Nc2ccc(OC(F)F)cc2)n1 | 0.682 µM
O=C(Nc1ccc(N2CCOCC2)cc1)c1ccc(Cl)c(S(=O)(=O)N2CCCC2)c1 | 2.17 µM

Structure (SMILES) | AC50
Cc1cccc(C)c1-n1nnnc1C(c1cc2ccccc2o1)N1CCC(n2c(=O)[nH]c3ccccc32)CC1 (stereo not given) | 3.05 µM
Oc1ccccc1Nc1nc(NCc2ccccc2)c2ccccc2n1 | 10.7 µM
CCOC(=O)Oc1c(OC)cc(C(=O)O[C@@H]2C[C@@H]3CN4CCc5c([nH]c6cc(OC)ccc56)[C@H]4C[C@@H]3[C@H](C(=O)OC)[C@H]2OC)cc1OC | 10.7 µM
O=C(c1cc2sccc2n1Cc1ccc(F)cc1)N1CCN(c2nc3ccccc3s2)CC1 | 1.36 µM
O=C(OCCN1C(=O)c2cccc3c(N4CCOCC4)ccc(c23)C1=O)c1ccccc1Cl | 3.06 µM
CCC(C)NS(=O)(=O)c1ccc(S(=O)(=O)N2CCCC3(CCCCC3)C2)cc1 (stereo not given) | 3.44 µM
O=C(c1ccccc1)c1ccccc1N1C(=O)C=CC1=O | 16.7 µM
CCOC(=O)c1c(-c2ccccc2)oc2cc(CN(C)C)c(O)c(CN(C)C)c12 | 7.81 µM
CC(=O)NC(c1cccs1)c1cc(F)c2cccnc2c1O (stereo not given) | 1.67 µM
CN(C)CCNC(=O)c1cccc2nc3cccc(F)c3nc12 | 13.7 µM
C=C[C@]1(C)C=C2C(=O)[C@@]3(O)OC(=O)[C@@]4(CCCC(C)(C)[C@H]34)[C@@]2(O)CC1 | 4.98 µM
CC(CCCC(C)(C)O)NC(=O)c1cc(COc2ccc3ncccc3c2)on1 (stereo not given) | 1.75 µM
CC(C)(C)c1ccc(CN(Cc2ccccc2)C(c2ccccn2)c2nnnn2C(C)(C)C)cc1 (stereo not given) | 13.5 µM
C[C@@H]1CCCCO[C@H](CN(C)Cc2ccccc2)[C@@H](C)CN([C@H](C)CO)C(=O)c2cc(NC(=O)c3ccccc3)ccc2O1 | 31.3 µM
O=C(Nc1ccc2nc3n(c(=O)c2c1)CCCCC3)c1c(F)ccc([N+](=O)[O-])c1F | 2.3 µM
CC(C)(C)c1nc(NCCN2CCOCC2)c2nnn(Cc3ccccc3Cl)c2n1 | 8.85 µM
CCOC(=O)C1(CCOc2ccccc2)CCN(Cc2ccc(OC)c(COC)c2)CC1 | 3.87 µM
Cc1ccc(S(=O)(=O)NCCc2cc3ccc(C)cc3[nH]c2=O)cc1 | > 70 µM (inactive)
CC(C)(O)C#Cc1ccc([C@@H]2C[C@H]3CN(c4ccccc4)C(=O)[C@]34CCCN24)s1 | 4.93 µM
CC(Oc1cccc(Br)c1)C(=O)NNC(=O)c1ccccn1 (stereo not given) | 3.36 µM
COc1ccc2c(CC(=O)OCC(=O)N(C)c3c(N)n(Cc4ccccc4)c(=O)[nH]c3=O)coc2c1 | 21.2 µM
CC/C(=C/c1ccccc1)c1cccc2[nH]c3c(OC)cccc3c12 | 32.8 µM
CC1CCN(c2ccc(-c3cccc(NC(=O)C(F)(F)F)c3)nn2)CC1 | 2.74 µM
COc1cc(NC(=O)NCc2ccco2)ccc1-c1ccc(NC(=O)NCc2ccco2)cc1OC | 3.19 µM
CCc1ccc(NC(=O)C2CCN(S(=O)(=O)c3ccc4c(c3)NC(=O)C(C)S4)CC2)cc1 (stereo not given) | 7.08 µM

Structure (SMILES) | AC50
CCOC(=O)C1CCN(c2cc3c(cc2NC(=O)c2ccccc2Br)n(C)c(=O)n3C)CC1 | 21.3 µM
CN(C)S(=O)(=O)c1cccc(N=c2scc(-c3ccc4c(c3)NC(=O)CO4)n2CC2CCCO2)c1 (stereo not given) | 14 µM
Cc1cc(C)c2nc(NNC(=O)c3ccc(S(=O)(=O)N4CCc5ccccc5C4)cc3)sc2c1 | 1.98 µM
COc1c(CC=C(C)C)cc(C2CC(=O)c3c(O)cc(O)cc3O2)cc1CC=C(C)C (stereo not given) | 5.42 µM
CCS(=O)(=O)c1ncc(Cl)c(C(=O)Nc2ccc(S(=O)(=O)N3CCCC(C)C3)cc2)n1 (stereo not given) | < 0.26 µM
COc1cccc(OCCn2cc(C(C)=O)c3ccccc32)c1 | 1.85 µM
O=C(/C=C/c1ccc(OCc2ccccc2)c(OCc2ccccc2)c1)c1cccnc1 | 5.19 µM
Cc1ccc2c(c1)c(C1=c3ccccc3=NC1=O)c(O)n2C | 8.85 µM
CCN(CC)CCCNc1nc2ccccc2c2[nH]c3ccc(OC)cc3c12 | 12.3 µM
COc1ccc(CS(=O)(=O)/C(Cl)=C(/Cl)C(=O)Nc2ccc(OC)nc2)cc1 | < 0.26 µM
NC1=NC[C@H](c2ccccc2)N1CCCCC1CCCCC1 | 4.23 µM
Cc1ccc(S(=O)(=O)Nc2ccc3ncccc3c2)cc1 | 2.2 µM
Cc1ccc(OC(=O)CCC(=O)Oc2ccc(C)cc2C)c(C)c1 | 3.51 µM
COc1ccc(C(NC(=O)C(C)C)c2ccc3cccnc3c2O)cc1 (stereo not given) | 1.35 µM
CC(CNC(=O)c1cc(COc2ccc3ncccc3c2)on1)c1ccccc1 (stereo not given) | 3.73 µM
CSC1SCC2C(=O)N(C)C(C(C)C)C(=O)OCC(NC(=O)c3cnc4ccccc4n3)C(=O)NC(C)C(=O)N(C)C1C(=O)N(C)C(C(C)C)C(=O)OCC(NC(=O)c1cnc3ccccc3n1)C(=O)NC(C)C(=O)N2C (stereo not given) | < 0.26 µM
CC(=O)c1cn(Cc2ccccc2C#N)c2ccccc12 | 0.527 µM
COc1ccccc1/C=C/CN1CCC(n2nccc2NC(=O)CCc2ccccc2)CC1 | 1.91 µM
COc1ccccc1N1CCN(c2ncc(C(=O)N3CCN(c4cccc(Cl)c4)CC3)c3ccccc23)CC1 | 0.572 µM
O=C(OCCC12CC3CC(CC(C3)C1)C2)c1ccc(NCc2cc(O)ccc2O)cc1 | 1.82 µM
COc1cccc(NC(=O)c2nc(S(C)(=O)=O)ncc2Cl)c1 | 0.834 µM
CCS(=O)(=O)c1ncc(Cl)c(C(=O)Nc2ccc(S(=O)(=O)N(C)c3ccccc3)cc2)n1 | 0.308 µM
CCn1c(=NC(=O)CCS(=O)(=O)c2ccccc2)sc2cccc(OC)c21 | 1.28 µM
CC(C)c1ccc(/C=C(\c2nc3ccccc3[nH]2)S(=O)(=O)c2ccccc2)cc1 | 4.01 µM
O=C(C1CCC(CNS(=O)(=O)c2cccs2)CC1)N1CCN(c2ccc(Cl)cc2)CC1 (stereo not given) | 1.61 µM

Structure (SMILES) | AC50
COc1cccc(CN(C)C(=O)c2ccc(OCC(=O)Nc3cccc(C(F)(F)F)c3)c(OC)c2)c1 | 4.93 µM
Fc1ccc(/C=C2\CCCC3=C2Nc2ncnn2C3c2ccc(F)cc2)cc1 (stereo not given) | 8.47 µM
COc1ccc(NS(=O)(=O)c2ccc(OC)c(N(C)S(=O)(=O)c3ccc(Cl)cc3)c2)cc1 | 2.92 µM
CCN1CCN(Cc2ccc(NC(=O)c3cc(NC(=O)c4cncc(-c5ccc(C#N)cc5)c4)cc(OC)c3)cc2C(F)(F)F)CC1 | 3.36 µM
CCCCn1c(CN2CCN(c3ccccc3)CC2)nc2c1c(=O)n(C)c(=O)n2C | 2.05 µM
CN(Cc1ccc(OCC(O)CN2CCCCC2)cc1)Cc1ccnc2ccccc12 (stereo not given) | 1.21 µM
Cc1ccccc1C(=O)N1CCN(c2ccc(NC(=O)c3ccc4c(c3)OCCO4)cc2)CC1 | 2.17 µM
COc1ccc(C(=O)Cn2c(C(=O)/C=C/c3ccccc3)nc3ccccc32)cc1 | 4.47 µM
CCOC(=O)c1cccc(NC2c3ccccc3C(=O)N2Cc2ccco2)c1 (stereo not given) | 4.26 µM
CCCNc1nc2c(c(=O)n(C)c(=O)n2C)n1Cc1cccc(C)c1 | 1.91 µM
CC(C)c1nnc(NC(=O)c2nc(S(=O)(=O)Cc3ccccc3)ncc2Cl)s1 | 0.876 µM
Cc1nc(NC(C)c2ccccc2)c2oc3ccccc3c2n1 (stereo not given) | 3.06 µM
CC(C)n1c(/C=C/[C@H](O)C[C@H](O)CC(=O)O)c(-c2ccc(F)cc2)c2ccccc21 | 1.42 µM
COc1ccc(/C=C/C(=O)c2ccc(C(=O)/C=C/c3ccc(OC)c(OC)c3)cc2)cc1OC | 5.18 µM
CC[C@]12c3[nH]c4cc(CCC(=O)N(C)C)ccc4c3CCN1C(=O)[C@@H](CC(=O)NC/C=C(\C)CCC=C(C)C)C[C@@H]2C(=O)N1CCN(C(=O)c2ccco2)CC1 | 1.68 µM
CC(C)CCOc1cccc(OCC(=O)Nc2ccncc2)c1 | 0.571 µM
COc1ccc(CN2CCC(C(=O)Nc3ccc(Oc4cccnc4)cc3)CC2)c(C)c1C | 3.68 µM
CCCCC(=O)NC(c1ccc(N(C)C)cc1)c1ccc2cccnc2c1O (stereo not given) | 0.98 µM
CCc1ccc(CN(C)C(=O)c2cc(COc3cccc4cnccc34)on2)cc1 | 1.92 µM
O=C(/C=C/Sc1ncn[nH]1)c1ccc(Cl)cc1 | 9.76 µM
COc1cc(CC(=O)Nc2nc(-c3ccc(F)c(F)c3)cs2)cc(OC)c1OC | 3.92 µM
CS(=O)(=O)N1CCN(c2ccc(NC(=O)c3ccc([N+](=O)[O-])o3)cc2)CC1 | 5.65 µM
O=C(O)c1cccc(COc2ccccc2Cl)c1 | 1.48 µM
Cc1ccc(-c2cn3cc(C)ccc3n2)cc1 | 1.32 µM
COc1cc(NC(=O)Cn2ncc(Cl)c(Cl)c2=O)c(C)cc1[N+](=O)[O-] | 3.44 µM
